According to PubChem BioAssay AID330 (DTP/NCI, 2004):
Several values for one entry are separate records, joined by “and”; a condition that tells them apart may be missing. Equal values may be shown once. Toxic doses and inconclusive results are not listed.

Tested on: P388 leukemia ip, CD2F1 mice, survival T/C
Test: NCI In Vivo Anticancer Drug Screen. Data for tumor model P388 Leukemia (intraperitoneal) in CD2F1 (CDF1) mice
Details: endpoint: median survival time, higher = longer survival
Summary of the method: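 Mice carrying the transplanted tumor received test compound or vehicle. Survival was recorded in each group, and the value is the treated-group measurement divided by that of the vehicle-treated control group.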

[1] = dose: 60.0 mg/kg/injection, schedule: Q01DX005 (ip), vehicle: saline with Tween-80
[2] = dose: 120.0 mg/kg/injection, schedule: Q01DX005 (ip), vehicle: saline with Tween-80
[3] = dose: 50.0 mg/kg/injection, schedule: Q01DX009 (ip), vehicle: Klucel (hydroxypropylcellulose) (HPC)
[4] = dose: 100.0 mg/kg/injection, schedule: Q01DX009 (ip), vehicle: Klucel (hydroxypropylcellulose) (HPC)
[5] = dose: 50.0 mg/kg/injection, schedule: Q01DX005 (ip), vehicle: Klucel (hydroxypropylcellulose) (HPC)
[6] = dose: 100.0 mg/kg/injection, schedule: Q01DX005 (ip), vehicle: Klucel (hydroxypropylcellulose) (HPC)

**Q.** For CC1Cc2ccc3c(c2C(c2ccc4c(c2)OCO4)C1C)OCO3 (configuration not stated), which T/C (dose: 60.0 mg/kg/injection, schedule: Q01DX005 (ip), vehicle: Klucel + Tween-80) is on record?
**A.** 103 % of control

**Q.** And the T/C (dose: 120.0 mg/kg/injection, schedule: Q01DX005 (ip), vehicle: Klucel + Tween-80)?
**A.** 97 % of control

**Q.** What about the T/C (dose: 240.0 mg/kg/injection, schedule: Q01DX005 (ip), vehicle: Klucel + Tween-80) of the same molecule?
**A.** 86 % of control

**Q.** Which results are given for Cc1cc(N=[N+]=[N-])c2ccc(F)cc2n1?
**A.** T/C [1]: 94 % of control; T/C [2]: 92 % of control

**Q.** How did the T/C (dose: 0.38 mg/kg/injection, schedule: Q01DX009 (ip), vehicle: Klucel (hydroxypropylcellulose) (HPC)) turn out when CCCCOC(=O)N[C@H]1CCc2cc(OC)c(OC)c(OC)c2-c2ccc(SC)c(=O)cc21 was run?
**A.** 112 % of control

**Q.** What about the T/C (dose: 0.75 mg/kg/injection, schedule: Q01DX009 (ip), vehicle: Klucel (hydroxypropylcellulose) (HPC)) of the same molecule?
**A.** 122 % of control and 123 % of control

**Q.** What about the T/C (dose: 1.5 mg/kg/injection, schedule: Q01DX009 (ip), vehicle: Klucel (hydroxypropylcellulose) (HPC)) of the same molecule?
**A.** 114 % of control

**Q.** What about the T/C (dose: 12.0 mg/kg/injection, schedule: Q01DX009 (ip), vehicle: Klucel (hydroxypropylcellulose) (HPC)) of the same molecule?
**A.** 94 % of control

**Q.** Which T/C (dose: 12.5 mg/kg/injection, schedule: Q01DX009 (ip), vehicle: Klucel (hydroxypropylcellulose) (HPC)) does the source give for CNC(=O)OCc1c(COC(=O)NC)c(-c2ccc(Cl)c(Cl)c2)n2c1CCC2 here?
**A.** 153 % of control

**Q.** What about the T/C (dose: 25.0 mg/kg/injection, schedule: Q01DX009 (ip), vehicle: Klucel (hydroxypropylcellulose) (HPC)) of the same molecule?
**A.** 160 % of control

**Q.** And the T/C [3]?
**A.** 155 % of control

**Q.** What about the T/C [4] of the same molecule?
**A.** 188 % of control

**Q.** What does the source list for COc1ccc2cc1Oc1ccc(cc1)CC1c3cc(c(OC)cc3CCN1C)Oc1c(O)c(OC)cc3c1C(C2)N(C)CC3 (configuration not stated)?
**A.** T/C (dose: 15.0 mg/kg/injection, schedule: Q01DX009 (ip), vehicle: Klucel (hydroxypropylcellulose) (HPC)): 95 % of control; T/C (dose: 30.0 mg/kg/injection, schedule: Q01DX009 (ip), vehicle: Klucel (hydroxypropylcellulose) (HPC)): 93 % of control; T/C (dose: 60.0 mg/kg/injection, schedule: Q01DX009 (ip), vehicle: Klucel (hydroxypropylcellulose) (HPC)): 97 % of control

**Q.** Which T/C (dose: 3.12 mg/kg/injection, schedule: Q01DX009 (ip), vehicle: saline) does the source give for C[n+]1ccn2cc(S(=O)(=O)[O-])ccc21 here?
**A.** 92 % of control

**Q.** What about the T/C (dose: 6.25 mg/kg/injection, schedule: Q01DX009 (ip), vehicle: saline) of the same molecule?
**A.** 95 % of control

**Q.** What does the source list for OCc1cccc2c1Oc1ccccc1S2?
**A.** T/C (dose: 100.0 mg/kg/injection, schedule: Q01DX001 (ip), vehicle: saline with Tween-80): 98 % of control; T/C (dose: 200.0 mg/kg/injection, schedule: Q01DX001 (ip), vehicle: saline with Tween-80): 98 % of control; T/C (dose: 400.0 mg/kg/injection, schedule: Q01DX001 (ip), vehicle: saline with Tween-80): 95 % of control

**Q.** How did the T/C [1] turn out when CCCCCCCCC1CCC(=O)NC1=O (configuration not stated) was run?
**A.** 112 % of control

**Q.** And the T/C [2]?
**A.** 104 % of control

**Q.** What about the T/C (dose: 240.0 mg/kg/injection, schedule: Q01DX005 (ip), vehicle: saline with Tween-80) of the same molecule?
**A.** 93 % of control

**Q.** For O=C(OC1(c2ccc3ccccc3c2)OC(=O)c2ccccc21)c1ccccc1C(=O)c1cccc2ccccc12 (configuration not stated), which T/C (dose: 100.0 mg/kg/injection, schedule: Q01DX001 (ip), vehicle: Klucel (hydroxypropylcellulose) (HPC)) is on record?
**A.** 92 % of control

**Q.** And the T/C (dose: 200.0 mg/kg/injection, schedule: Q01DX001 (ip), vehicle: Klucel (hydroxypropylcellulose) (HPC))?
**A.** 91 % of control

**Q.** And the T/C (dose: 400.0 mg/kg/injection, schedule: Q01DX001 (ip), vehicle: Klucel (hydroxypropylcellulose) (HPC))?
**A.** 91 % of control

**Q.** O=[N+]([O-])c1ccccc1C=Nc1ccc2nc(SCc3ccccc3)sc2c1 was tested. Which T/C (dose: 100.0 mg/kg/injection, schedule: Q04DX003 (ip), vehicle: Klucel (hydroxypropylcellulose) (HPC)) did it give?
**A.** 100 % of control

**Q.** What about the T/C (dose: 200.0 mg/kg/injection, schedule: Q04DX003 (ip), vehicle: Klucel (hydroxypropylcellulose) (HPC)) of the same molecule?
**A.** 95 % of control

**Q.** What about the T/C (dose: 400.0 mg/kg/injection, schedule: Q04DX003 (ip), vehicle: Klucel (hydroxypropylcellulose) (HPC)) of the same molecule?
**A.** 89 % of control

**Q.** How did the T/C (dose: 6.25 mg/kg/injection, schedule: Q01DX009 (ip), vehicle: saline with Tween-80) turn out when COc1cc(/C=N/OC(=O)Nc2ccccc2)cc(OC)c1OC was run?
**A.** 96 % of control

**Q.** What about the T/C (dose: 12.5 mg/kg/injection, schedule: Q01DX009 (ip), vehicle: saline with Tween-80) of the same molecule?
**A.** 91 % of control

**Q.** What about the T/C (dose: 25.0 mg/kg/injection, schedule: Q01DX009 (ip), vehicle: saline with Tween-80) of the same molecule?
**A.** 91 % of control

**Q.** COC(=O)c1[nH]c(=O)c(C#N)c(C(=O)OC)c1C(=O)c1ccc2ccccc2c1 was tested. Which T/C (dose: 60.0 mg/kg/injection, schedule: Q01DX005 (ip), vehicle: Klucel (hydroxypropylcellulose) (HPC)) did it give?
**A.** 90 % of control

**Q.** What about the T/C (dose: 120.0 mg/kg/injection, schedule: Q01DX005 (ip), vehicle: Klucel (hydroxypropylcellulose) (HPC)) of the same molecule?
**A.** 88 % of control

**Q.** What about the T/C (dose: 240.0 mg/kg/injection, schedule: Q01DX005 (ip), vehicle: Klucel (hydroxypropylcellulose) (HPC)) of the same molecule?
**A.** 97 % of control

**Q.** How did the T/C [5] turn out when Cc1ccc(C(=O)/C([S-])=C(\Nc2cccc(Cl)c2)[n+]2ccccc2)cc1 was run?
**A.** 100 % of control

**Q.** And the T/C [6]?
**A.** 98 % of control

**Q.** What about the T/C (dose: 200.0 mg/kg/injection, schedule: Q01DX005 (ip), vehicle: Klucel (hydroxypropylcellulose) (HPC)) of the same molecule?
**A.** 93 % of control

**Q.** O=C(O)c1cc(C(=O)C(=O)c2cc(C(=O)O)c(O)c3ccccc23)c2ccccc2c1O was tested. Which T/C (dose: 50.0 mg/kg/injection, schedule: Q01DX009 (ip), vehicle: saline with Tween-80) did it give?
**A.** 95 % of control

**Q.** What about the T/C (dose: 100.0 mg/kg/injection, schedule: Q01DX009 (ip), vehicle: saline with Tween-80) of the same molecule?
**A.** 95 % of control

**Q.** What about the T/C (dose: 200.0 mg/kg/injection, schedule: Q01DX009 (ip), vehicle: saline with Tween-80) of the same molecule?
**A.** 101 % of control

**Q.** For CC1(C)Nc2cccc3cccc(c23)N1, which T/C [5] is on record?
**A.** 108 % of control

**Q.** And the T/C [6]?
**A.** 86 % of control

**Q.** Which T/C [3] does the source give for CSc1cccc(NC(=O)N2CCN(C)CC2)c1 here?
**A.** 89 % of control

**Q.** And the T/C [4]?
**A.** 91 % of control

**Q.** What about the T/C (dose: 200.0 mg/kg/injection, schedule: Q01DX009 (ip), vehicle: Klucel (hydroxypropylcellulose) (HPC)) of the same molecule?
**A.** 94 % of control
